Data reported in ChEMBL document CHEMBL1144632, “The rational design of inhibitors of nitric oxide formation by inducible nitric oxide synthase” (Bioorg Med Chem Lett, 2007).
pIC50: −log10 of the molar value. Calls of active or inactive are those of the source. The calls are words filed in the database; no cut-off is given here.

Tests used:
[1] = biological target: Nitric oxide synthase, inducible (Homo sapiens, UniProt P35228); experiment: Inhibition of iNOS in human A172 cells after 18 to 24 hrs; assay type: cell-based, A 172
[2] = biological target: Nitric oxide synthase 1 (Homo sapiens) (UniProt P29475); experiment: Inhibition of bNOS
[3] = biological target: T1, Nitric oxide synthase 3 (Homo sapiens) (UniProt P29474); experiment: Inhibition of eNOS
T1 sequence (whole entry): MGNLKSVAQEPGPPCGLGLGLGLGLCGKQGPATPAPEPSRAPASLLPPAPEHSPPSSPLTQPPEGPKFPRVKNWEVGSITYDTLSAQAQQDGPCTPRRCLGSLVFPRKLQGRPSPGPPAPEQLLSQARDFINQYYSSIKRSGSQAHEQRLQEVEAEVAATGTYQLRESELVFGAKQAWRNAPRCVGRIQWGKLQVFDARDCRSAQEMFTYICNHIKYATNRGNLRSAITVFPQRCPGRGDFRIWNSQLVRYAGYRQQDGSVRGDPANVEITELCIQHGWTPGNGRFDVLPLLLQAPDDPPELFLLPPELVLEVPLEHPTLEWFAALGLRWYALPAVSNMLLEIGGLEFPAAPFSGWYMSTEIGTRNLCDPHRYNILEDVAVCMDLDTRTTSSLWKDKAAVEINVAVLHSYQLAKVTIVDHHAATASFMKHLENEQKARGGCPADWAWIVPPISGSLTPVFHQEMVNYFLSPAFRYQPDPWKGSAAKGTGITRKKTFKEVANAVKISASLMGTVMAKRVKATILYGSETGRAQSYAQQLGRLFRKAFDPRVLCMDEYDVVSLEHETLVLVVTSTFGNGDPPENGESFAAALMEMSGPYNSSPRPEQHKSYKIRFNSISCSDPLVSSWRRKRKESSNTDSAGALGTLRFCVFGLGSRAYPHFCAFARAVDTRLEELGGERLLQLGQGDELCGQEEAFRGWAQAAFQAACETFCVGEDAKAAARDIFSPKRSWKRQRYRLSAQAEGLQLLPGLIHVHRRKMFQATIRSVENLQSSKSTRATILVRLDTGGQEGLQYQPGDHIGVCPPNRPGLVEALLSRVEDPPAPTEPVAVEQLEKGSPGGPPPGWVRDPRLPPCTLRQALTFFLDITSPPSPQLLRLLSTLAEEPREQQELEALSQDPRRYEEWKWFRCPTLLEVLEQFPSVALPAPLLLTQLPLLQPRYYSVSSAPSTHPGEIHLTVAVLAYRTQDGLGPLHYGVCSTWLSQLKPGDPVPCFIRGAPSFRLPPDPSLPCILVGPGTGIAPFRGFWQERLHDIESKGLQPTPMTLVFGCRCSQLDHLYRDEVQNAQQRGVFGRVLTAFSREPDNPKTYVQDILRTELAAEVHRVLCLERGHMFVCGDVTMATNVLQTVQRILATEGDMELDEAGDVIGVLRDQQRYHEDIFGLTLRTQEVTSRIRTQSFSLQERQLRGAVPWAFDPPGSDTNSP

Sequence of Nitric oxide synthase, inducible (P35228 whole entry): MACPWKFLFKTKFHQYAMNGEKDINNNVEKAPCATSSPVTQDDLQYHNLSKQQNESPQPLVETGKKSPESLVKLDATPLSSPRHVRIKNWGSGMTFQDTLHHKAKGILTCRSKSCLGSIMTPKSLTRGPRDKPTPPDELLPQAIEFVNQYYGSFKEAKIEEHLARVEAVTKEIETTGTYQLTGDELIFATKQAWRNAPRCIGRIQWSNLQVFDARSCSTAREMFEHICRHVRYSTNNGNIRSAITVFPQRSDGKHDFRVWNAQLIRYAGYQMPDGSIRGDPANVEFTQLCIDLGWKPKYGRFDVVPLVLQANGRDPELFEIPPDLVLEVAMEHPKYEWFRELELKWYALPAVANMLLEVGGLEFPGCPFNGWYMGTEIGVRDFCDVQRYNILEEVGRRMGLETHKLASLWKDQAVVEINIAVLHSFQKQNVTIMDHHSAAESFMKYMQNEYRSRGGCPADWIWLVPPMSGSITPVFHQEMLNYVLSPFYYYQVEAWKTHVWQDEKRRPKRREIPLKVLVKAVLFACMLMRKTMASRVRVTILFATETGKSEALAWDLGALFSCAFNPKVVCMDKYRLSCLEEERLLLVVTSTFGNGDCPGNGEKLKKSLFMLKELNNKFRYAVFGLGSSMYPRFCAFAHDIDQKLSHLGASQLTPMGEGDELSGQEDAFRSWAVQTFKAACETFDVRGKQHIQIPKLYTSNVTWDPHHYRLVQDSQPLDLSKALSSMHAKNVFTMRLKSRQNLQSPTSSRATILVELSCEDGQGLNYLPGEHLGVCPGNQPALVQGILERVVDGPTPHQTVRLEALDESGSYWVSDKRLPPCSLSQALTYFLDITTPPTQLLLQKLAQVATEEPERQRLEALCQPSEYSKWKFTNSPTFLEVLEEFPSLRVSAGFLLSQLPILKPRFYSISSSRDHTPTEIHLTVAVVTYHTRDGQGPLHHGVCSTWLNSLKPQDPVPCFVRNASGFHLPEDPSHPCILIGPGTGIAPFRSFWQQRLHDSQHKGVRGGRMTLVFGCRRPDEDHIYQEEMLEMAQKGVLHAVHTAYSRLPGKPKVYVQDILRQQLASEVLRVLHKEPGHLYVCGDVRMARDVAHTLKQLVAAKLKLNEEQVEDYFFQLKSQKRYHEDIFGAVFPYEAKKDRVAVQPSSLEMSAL
Sequence of Nitric oxide synthase 1 (Homo sapiens) (P29475 whole entry): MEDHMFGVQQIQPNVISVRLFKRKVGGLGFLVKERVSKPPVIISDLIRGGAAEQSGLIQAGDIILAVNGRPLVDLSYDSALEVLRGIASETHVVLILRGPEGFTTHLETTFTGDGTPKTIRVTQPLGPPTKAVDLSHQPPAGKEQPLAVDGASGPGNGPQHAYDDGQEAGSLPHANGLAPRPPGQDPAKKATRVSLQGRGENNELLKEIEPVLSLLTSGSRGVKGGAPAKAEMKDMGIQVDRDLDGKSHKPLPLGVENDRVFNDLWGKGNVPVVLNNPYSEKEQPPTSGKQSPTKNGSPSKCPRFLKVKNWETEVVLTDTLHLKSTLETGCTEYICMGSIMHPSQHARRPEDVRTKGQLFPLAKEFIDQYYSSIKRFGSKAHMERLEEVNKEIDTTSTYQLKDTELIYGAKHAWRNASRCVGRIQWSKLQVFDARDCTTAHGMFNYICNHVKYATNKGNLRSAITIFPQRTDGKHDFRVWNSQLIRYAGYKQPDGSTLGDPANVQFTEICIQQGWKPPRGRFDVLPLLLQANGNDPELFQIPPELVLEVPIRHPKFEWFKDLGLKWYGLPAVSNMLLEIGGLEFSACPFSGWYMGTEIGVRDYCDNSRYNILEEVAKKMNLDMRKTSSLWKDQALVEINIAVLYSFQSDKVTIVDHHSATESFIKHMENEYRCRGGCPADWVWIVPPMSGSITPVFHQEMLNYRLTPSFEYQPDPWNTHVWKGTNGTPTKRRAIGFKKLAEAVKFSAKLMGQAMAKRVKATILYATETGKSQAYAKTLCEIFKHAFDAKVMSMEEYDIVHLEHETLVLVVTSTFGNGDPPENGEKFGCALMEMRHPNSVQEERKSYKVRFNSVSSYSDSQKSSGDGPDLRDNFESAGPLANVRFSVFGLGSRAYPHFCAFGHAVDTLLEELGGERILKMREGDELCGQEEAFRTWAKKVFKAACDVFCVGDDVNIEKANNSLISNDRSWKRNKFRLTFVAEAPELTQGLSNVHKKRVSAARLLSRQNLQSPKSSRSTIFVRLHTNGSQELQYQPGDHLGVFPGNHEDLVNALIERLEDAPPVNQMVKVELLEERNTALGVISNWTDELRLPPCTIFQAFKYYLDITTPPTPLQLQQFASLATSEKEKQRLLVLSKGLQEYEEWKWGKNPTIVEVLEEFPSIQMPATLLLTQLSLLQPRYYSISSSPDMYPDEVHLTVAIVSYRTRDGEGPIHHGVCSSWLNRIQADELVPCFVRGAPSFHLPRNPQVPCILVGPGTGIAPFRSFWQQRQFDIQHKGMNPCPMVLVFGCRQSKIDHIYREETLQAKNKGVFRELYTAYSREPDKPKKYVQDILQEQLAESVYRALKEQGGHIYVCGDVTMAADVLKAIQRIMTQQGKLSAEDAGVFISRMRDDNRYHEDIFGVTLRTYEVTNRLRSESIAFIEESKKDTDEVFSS

Row | Compound | pIC50 [1] | Activity [2] | Activity [3]
1 | Cc1cc(Oc2ccc3c(c2)OCO3)nc(Oc2ccc(-n3ccnc3)cc2C(F)(F)F)n1 | 6.66 |  | 
2 | c1cn(-c2ccc(Oc3nccc(Oc4ccc5c(c4)OCO5)n3)cc2)cn1 | 7.26 | inactive | inactive
3 | Cc1cc(Oc2ccc3c(c2)OCO3)nc(Oc2ccc(-n3ccnc3)cc2)n1 | 7.05 |  | 
4 | c1cn(-c2ccc(Oc3cc(Oc4ccc5c(c4)OCO5)ncn3)cc2)cn1 | < 5.00 |  | 
5 | c1cn(-c2ccc(Oc3ccnc(Oc4ccc5c(c4)OCO5)n3)cc2)cn1 | 7.13 |  | 

Next, values leading:

Row | pIC50 [1] | Activity [2] | Activity [3] | Compound
6 | 7.11 |  |  | c1cc(Oc2ccc(-n3ccnc3)cc2)nc(Oc2ccc3c(c2)OCO3)c1
7 | 7.72 |  |  | Cc1cc(Oc2ccc3c(c2)OCO3)nc(Oc2ccc(-n3ccnc3)cc2Cl)n1
8 | 6.35 |  |  | Cc1c(F)c(Oc2ccc(-n3ccnc3)cc2)nc(Oc2ccc3c(c2)OCO3)c1F
9 | 6.89 |  |  | Cc1cnc(Oc2ccc(-n3ccnc3)cc2)nc1Oc1ccc2c(c1)OCO2
10 | 7.04 |  |  | Cc1cc(Oc2ccc3c(c2)OCO3)nc(Oc2ccc(-n3ccnc3)cc2F)n1
11 | < 5.00 |  |  | Clc1cc(Oc2ccc(-n3ccnc3)cc2)nc(Cc2ccc3c(c2)OCO3)n1
12 | 6.08 |  |  | c1cn(-c2ccc(Oc3cc(N4CCOCC4)nc(Cc4ccc5c(c4)OCO5)n3)cc2)cn1
13 | 6.66 |  |  | CN(C)CCCN(C)c1cc(Oc2ccc(-n3ccnc3)cc2)nc(Cc2ccc3c(c2)OCO3)n1
